From publication PMC10976160, “Comparative Pharmacokinetics Research of 13 Bioactive Components of Jieyu Pills in Control and Attention Deficit Hyperactivity Disorder Model Rats Based on UPLC-Orbitrap Fusion MS” (Molecules, 2024)
Like-named read-outs stand apart in the source and are kept apart here.

Experiments:
[1] = Pharmacokinetics in ADHD model rats after gavage of JYPs; format: in vivo, SHR rats (ADHD model); details: for peak time: oral JYPs; for AUC(0-inf) / AUC(0-t) / Cmax / Tmax / half-life / MRT last / MRT inf: male, SHR, rat, plasma; for MRT last: read-out: MRT(0-t); for MRT inf: read-out: MRT(0-∞)
Procedure: Based on the established analytical method for plasma samples, a pharmacokinetic study was conducted on 13 constituents in the plasma of ADHD model rats after gavage of JYPs (Figure 3). The linearity of ln(AUC0-t)–ln(dose) and ln(Cmax)–ln(dose) was analyzed in the same way.
For the control experiment, healthy male Sprague Dawley (SD) rats of SPF grade ([…] ± 20 g) were purchased from Sipeifu (Beijing) Biotechnology Co., Ltd. (Beijing, China), Animal Quality Certificate No. 110324220102348616. For the ADHD model rats, healthy male SHR rats of SPF grade, weighing 220 ± 20 g, were purchased from SBF (Beijing) Biotechnology Co., Ltd. (Beijing, China), License No. SCXK (Yu) 2019-0010. The animals were accommodated in the Animal Center of Henan University of Traditional Chinese Medicine, which successfully underwent an ethical audit with ethics number DWLL202208003. The animals were bred under controlled conditions at a temperature of 24 °C and a relative humidity of 50 ± 2%. Before the experiment, the animals abstained from eating for 12 h and had unrestricted access to water. The feeding and experimental research conducted on the experimental animals adhered to the laws outlined in the Management of Experimental Animals in Henan Province.
JYPs were ground into a fine powder and sieved through 60-mesh sieves; then, 20 g of fine JYP powder was taken, having been weighed precisely. A precise volume of 50 mL of pure water was added and mixed well to prepare a 0.4 g/mL suspension solution of JYPs, which was then stored in the refrigerator at 4 °C.
This study involved 24 healthy male SD rats with a body mass of 220 ± 20 g and 24 healthy male ADHD rats with a body mass of 220 ± 20 g. Subjects abstained from food for a duration of 12 h before the experiment and consumed water without restriction. Both kinds of rats were randomly divided into four groups: a blank group, given an equal dose of water intragastrically, and 3 different administration groups: rats given the equivalent human dose of JYPs by gavage in doses of 1.080 g/kg/d, 2.160 g/kg/d, and 4.320 g/kg/d. Tail vein blood was collected at 0.083, 0.25, 0.5, 0.75, 1, 1.5, 2, 3, 4, 6, 8, 12, 18, and 24 h after dosing. About 0.5 mL of blood was collected in sodium heparin centrifugal tubes, then centrifuged at 4 °C for 10 min at a speed of 3500r/min. We took the upper layer and placed it at −80 °C for preservation.
We took 200 μL of plasma, added 600 μL of methanol solution and 50 μL of internal standard (100 ng/mL), and subjected it to shaking for 5 min, followed by centrifugation at 4 °C at 12,000 r/min for 10 min. The supernatant was collected and allowed to dry, then reconstituted with 50 μL of 50% methanol and centrifuged at 4 °C at 14,000 r/min for a further 10 min. The supernatant after this process was taken as the test solution. A volume of 5 μL was used for UPLC-MS analysis. The drug concentration in plasma was calculated with the aid of the internal standard.
Chromatographic conditions: Hypersil GOLD (100 × 2.1 mm, 1.9 μm) column; column temperature 35 °C; mobile phase acetonitrile (A)/0.1% formic acid aqueous solution (B); gradient elution; gradient elution program: 0–0.5 min (95% B–95% B), 0.5–8 min (95% B–50% B), 8–14 min (50% B–20% B), 14–20 min (20% B–5% B), 20–22 min (5% B–5% B), 22–25 min (95% B–95% B); flow rate 0.2 mL/min; injection volume 5 μL. The ion source was electrospray ionization (ESI), with positive and negative ion mode spray voltages of 3.50 and 3.0 kV, an ion transfer tube temperature of 300 °C, nitrogen as the carrier gas, a sheath gas pressure of 35 arb, an auxiliary gas pressure of 8 arb, and an auxiliary heater temperature of 275 °C.

[2] = design: method as in PMID 32135035; details: rats, oral dosing; cited from earlier work
[3] = ADHD model rats, oral JYPs high dose 4.320 g/kg/d (3rd of 3 values)
[4] = ADHD model rats, oral JYPs low dose 1.080 g/kg/d (1st of 3 values)
[5] = ADHD model rats, oral JYPs medium dose 2.160 g/kg/d (2nd of 3 values)
[6] = 1.08 g/kg/day, ADHD model rats, oral JYPs low dose 1.080 g/kg/d (1st of 3 values)
[7] = 2.16 g/kg/day, ADHD model rats, oral JYPs medium dose 2.160 g/kg/d (2nd of 3 values)
[8] = 4.32 g/kg/day, ADHD model rats, oral JYPs high dose 4.320 g/kg/d (3rd of 3 values)

AUMC(0-t) [1, 3]	AUMC(0-ꝏ) [1, 3]	AUMC(0-t) [1, 4]	AUMC(0-ꝏ) [1, 4]	AUMC(0-t) [1, 5]	AUMC(0-ꝏ) [1, 5]	AUC(0-inf) [1, 6] [µg·h/mL]	AUC(0-t) [1, 6] [µg·h/mL]	Cmax [1, 6] [µg/mL]	Tmax [1, 6] [h]	half-life [1, 6] [h]	MRT last [1, 6] [h]	MRT inf [1, 6] [h]	AUC(0-inf) [1, 7] [µg·h/mL]	AUC(0-t) [1, 7] [µg·h/mL]	Cmax [1, 7] [µg/mL]	Tmax [1, 7] [h]	MRT last [1, 7] [h]	MRT inf [1, 7] [h]	AUC(0-inf) [1, 8] [µg·h/mL]	Structure (SMILES)	further results
2395.92± 288.80 ng/mL*(h)²	5783.46± 3073.92 ng/mL*(h)²	1392.40± 460.59 ng/mL*(h)²	4853.64± 3957.39 ng/mL*(h)²	1937.54± 771.89 ng/mL*(h)²	5558.75± 2961.42 ng/mL*(h)²	0.233 ± 0.0912	0.164 ± 0.0575	0.0409 ± 0.0229	0.5 ± 0.16	13.3 ± 7.06	8.75 ± 1.6	19.4 ± 9.93	0.324 ± 0.131	0.24 ± 0.0966	0.053 ± 0.0192	0.79 ± 0.19	8.13 ± 1.23	16.8 ± 3.55	0.387 ± 0.0787	C[C@H]1O[C@@H](O[C@H]2CC[C@@]3(C)[C@@H](CC[C@]4(C)[C@@H]3C=C[C@]35OC[C@@]6(CCC(C)(C)C[C@H]63)[C@@H](O)C[C@]54C)[C@]2(C)CO)[C@H](O)[C@@H](O[C@@H]2O[C@H](CO)[C@@H](O)[C@H](O)[C@H]2O)[C@H]1O [Saikosaponin A]	peak time ([1]; ADHD model rats): less than 1 h; Clearances [1, 3]: 2855.71 ± 621.15 mL/h; Vss [1, 3]: 40360.07 ± 12917.92 mL; Clearances [1, 4]: 1291.22 ± 525.61 mL/h; Vss [1, 4]: 23782.60 ± 13625.69 mL; Vss [1, 5]: 35282.72 ± 25449.21 mL; MRT(0-t), ADHD rats compared with control rats ([1]; all concentrations): significantly higher; AUC(0-t), model rats compared with control rats ([1]; high-dose administration group): significantly greater; half-life [1, 7]: 12.2 ± 2.82 h; AUC(0-t) [1, 8]: 0.307 ± 0.0556 µg·h/mL; Cmax [1, 8]: 0.0731 ± 0.0226 µg/mL; Tmax [1, 8]: 0.58 ± 0.13 h; half-life [1, 8]: 10.3 ± 4.24 h; MRT last [1, 8]: 7.95 ± 1.2 h; MRT inf [1, 8]: 14.5 ± 5.42 h
1294.18± 361.60 ng/mL*(h)²	3035.93± 850.28 ng/mL*(h)²	761.68± 201.22 ng/mL*(h)²	2701.81± 992.13 ng/mL*(h)²	1149.72± 377.93 ng/mL*(h)²	3004.18± 2085.30 ng/mL*(h)²	0.132 ± 0.0323	0.0913 ± 0.0246	0.0226 ± 0.00241	0.58 ± 0.13	15 ± 5.9	8.43 ± 0.96	20.3 ± 5.6	0.188 ± 0.0552	0.145 ± 0.0328	0.0331 ± 0.00336	0.54 ± 0.25	7.8 ± 1.36	14.8 ± 6.52	0.201 ± 0.05	C[C@H]1O[C@@H](O[C@H]2CC[C@@]3(C)[C@@H](CC[C@]4(C)[C@@H]3C=C[C@]35OC[C@@]6(CCC(C)(C)C[C@H]63)[C@H](O)C[C@]54C)[C@]2(C)CO)[C@H](O)[C@@H](O[C@@H]2O[C@H](CO)[C@@H](O)[C@H](O)[C@H]2O)[C@H]1O [Saikosaponin D]	peak time ([1]; ADHD model rats): less than 1 h; Clearances [1, 3]: 3506.08 ± 856.33 mL/h; Vss [1, 3]: 53202.65 ± 17657.23 mL; Clearances [1, 4]: 1343.52 ± 399.07 mL/h; Vss [1, 4]: 26784.08 ± 8767.24 mL; Clearances [1, 5]: 1952.91 ± 715.40 mL/h; Vss [1, 5]: 26532.70 ± 7619.14 mL; MRT, model rats compared with control rats ([1]; high-dose): higher; half-life [1, 7]: 10.6 ± 4.96 h; AUC(0-t) [1, 8]: 0.156 ± 0.0386 µg·h/mL; Cmax [1, 8]: 0.0415 ± 0.0124 µg/mL; Tmax [1, 8]: 0.38 ± 0.14 h; half-life [1, 8]: 10.3 ± 2.55 h; MRT last [1, 8]: 8.26 ± 0.54 h; MRT inf [1, 8]: 15.2 ± 2.75 h; AUC, ADHD model rats compared with control rats ([1]; medium- and high-dose): higher
458.69± 201.28 ng/mL*(h)²	1348.99± 756.73 ng/mL*(h)²	322.64± 100.23 ng/mL*(h)²	870.35± 311.46 ng/mL*(h)²	383.83± 150.84 ng/mL*(h)²	1224.58± 657.13 ng/mL*(h)²	0.0493 ± 0.0147	0.0367 ± 0.0182	0.00407 ± 0.00185	1.67 ± 1.21	12.8 ± 3.2	8.9 ± 1.12	17.9 ± 4.8	0.0622 ± 0.0245	0.0447 ± 0.0182	0.00557 ± 0.00226	1.13 ± 0.44	8.72 ± 0.8	20 ± 7.8	0.0697 ± 0.0271	CCC/C=C1\OC(=O)C2=C1CCC=C2 [Z-Ligustilide]	oral bioavailability [2]: relatively poor; t1/2 [1, 5]: 14.63 ± 7.18 h; AUC(0-t) [1, 8]: 0.0495 ± 0.0168 µg·h/mL; Cmax [1, 8]: 0.00663 ± 0.00178 µg/mL; Tmax [1, 8]: 0.96 ± 0.1 h; half-life [1, 8]: 12.5 ± 3.72 h; MRT last [1, 8]: 8.9 ± 1.5 h; MRT inf [1, 8]: 18 ± 5 h
